Legend:
Assay in all cases: Kinase panel profiling
Assay type in all cases: biochemical
Settings in all cases: 10 μM ATP
MAK = target: T1, MAK (Homo sapiens, UniProt P20794)
T1 construct: purchased Reaction Biology Corp
Experimental: (§1) Kinase panel profiling was conducted by Reaction Biology Corp. (San Diego, CA, USA). A single dose (1.0 μM) of 6r was tested against 371 recombinant human kinases in the presence of 10 μM ATP.

TSSK2 = target: T2, TSSK2 (Homo sapiens, UniProt Q96PF2)
T2 construct: purchased Reaction Biology Corp
Experimental: as §1

ZAP70 = target: T3, ZAP70 (Homo sapiens, UniProt P43403)
T3 construct: purchased Reaction Biology Corp
Experimental: as §1

EPHA7 = target: T4, EPHA7 (Homo sapiens, UniProt Q15375)
T4 construct: purchased Reaction Biology Corp
Experimental: as §1

CDK3/cyclin E2 = target: T5, CDK3/cyclin E2 (Homo sapiens, UniProt Q00526)
T5 construct: purchased Reaction Biology Corp
Experimental: as §1

PASK = target: T6, PASK (Homo sapiens, UniProt Q96RG2)
T6 construct: purchased Reaction Biology Corp
Experimental: as §1

STK32C/YANK3 = target: T7, STK32C/YANK3 (Homo sapiens, UniProt Q86UX6)
T7 construct: purchased Reaction Biology Corp
Experimental: as §1

MEKK1 = target: T8, MEKK1 (Homo sapiens, UniProt Q13233)
T8 construct: purchased Reaction Biology Corp
Experimental: as §1

CK1a1L = target: T9, CK1a1L (Homo sapiens, UniProt Q8N752)
T9 construct: purchased Reaction Biology Corp
Experimental: as §1

PAK4 = target: T10, PAK4 (Homo sapiens, UniProt O96013)
T10 construct: purchased Reaction Biology Corp
T10 sequence (O96013 whole entry): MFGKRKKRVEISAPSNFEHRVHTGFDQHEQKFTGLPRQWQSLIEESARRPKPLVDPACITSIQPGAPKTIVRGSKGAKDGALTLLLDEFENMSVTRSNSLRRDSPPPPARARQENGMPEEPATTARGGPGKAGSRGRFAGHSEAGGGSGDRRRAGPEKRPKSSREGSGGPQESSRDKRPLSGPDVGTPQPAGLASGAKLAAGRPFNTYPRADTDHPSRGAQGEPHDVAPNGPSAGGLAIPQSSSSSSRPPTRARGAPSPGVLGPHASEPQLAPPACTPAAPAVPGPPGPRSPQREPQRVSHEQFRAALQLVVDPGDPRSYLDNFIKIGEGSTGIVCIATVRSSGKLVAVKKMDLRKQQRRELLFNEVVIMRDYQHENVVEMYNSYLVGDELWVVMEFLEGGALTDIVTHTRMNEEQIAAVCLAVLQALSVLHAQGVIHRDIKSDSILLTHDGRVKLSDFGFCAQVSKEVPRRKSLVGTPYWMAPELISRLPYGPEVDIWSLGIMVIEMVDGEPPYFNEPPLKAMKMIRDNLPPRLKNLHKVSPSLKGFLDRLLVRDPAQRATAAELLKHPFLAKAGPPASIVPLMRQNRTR
Experimental: as §1

KDR/VEGFR2 = target: T11, KDR/VEGFR2 (Homo sapiens, UniProt P35968)
T11 construct: purchased Reaction Biology Corp
Experimental: as §1

PKCd = target: T12, PKCd (Homo sapiens, UniProt Q05655)
T12 construct: purchased Reaction Biology Corp
Experimental: as §1

IKKe/IKBKE = target: T13, IKKe/IKBKE (Homo sapiens, UniProt Q14164)
T13 construct: purchased Reaction Biology Corp
T13 sequence (Q14164 whole entry): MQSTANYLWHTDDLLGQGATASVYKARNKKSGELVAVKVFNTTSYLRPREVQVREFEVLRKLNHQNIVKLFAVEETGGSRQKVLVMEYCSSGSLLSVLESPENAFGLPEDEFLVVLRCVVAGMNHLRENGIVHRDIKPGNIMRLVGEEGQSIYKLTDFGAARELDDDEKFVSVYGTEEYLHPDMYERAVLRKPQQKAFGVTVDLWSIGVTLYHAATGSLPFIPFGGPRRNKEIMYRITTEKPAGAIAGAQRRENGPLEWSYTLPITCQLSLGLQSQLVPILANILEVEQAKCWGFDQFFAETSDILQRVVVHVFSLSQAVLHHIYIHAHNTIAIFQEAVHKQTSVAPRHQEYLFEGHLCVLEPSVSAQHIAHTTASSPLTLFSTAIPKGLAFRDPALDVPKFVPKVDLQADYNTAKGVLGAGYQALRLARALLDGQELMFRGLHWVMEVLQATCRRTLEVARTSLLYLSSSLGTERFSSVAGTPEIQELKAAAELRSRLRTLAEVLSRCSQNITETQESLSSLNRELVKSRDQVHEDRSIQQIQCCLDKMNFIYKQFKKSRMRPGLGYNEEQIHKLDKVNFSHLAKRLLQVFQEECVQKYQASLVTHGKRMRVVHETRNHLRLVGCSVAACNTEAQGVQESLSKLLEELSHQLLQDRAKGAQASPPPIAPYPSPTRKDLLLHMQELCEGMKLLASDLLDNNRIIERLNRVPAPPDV
Experimental: as §1

EPHA1 = target: T14, EPHA1 (Homo sapiens, UniProt P21709)
T14 construct: purchased Reaction Biology Corp
Experimental: as §1

ULK1 = target: T15, ULK1 (Homo sapiens, UniProt O75385)
T15 construct: purchased Reaction Biology Corp
Experimental: as §1

JNK2 = target: T16, JNK2 (Homo sapiens, UniProt P45984)
T16 construct: purchased Reaction Biology Corp
Experimental: as §1

STK21/CIT = target: T17, STK21/CIT (Homo sapiens, UniProt O14578)
T17 construct: purchased Reaction Biology Corp
Experimental: as §1

VRK2 = target: T18, VRK2 (Homo sapiens, UniProt Q86Y07)
T18 construct: purchased Reaction Biology Corp
Experimental: as §1

EPHA8 = target: T19, EPHA8 (Homo sapiens, UniProt P29322)
T19 construct: purchased Reaction Biology Corp
Experimental: as §1

PKCmu/PRKD1 = target: T20, PKCmu/PRKD1 (Homo sapiens, UniProt Q15139)
T20 construct: purchased Reaction Biology Corp
Experimental: as §1

CDK6/cyclin D1 = target: T21, CDK6/cyclin D1 (Homo sapiens, UniProt Q00534)
T21 construct: purchased Reaction Biology Corp
T21 sequence (Q00534 whole entry): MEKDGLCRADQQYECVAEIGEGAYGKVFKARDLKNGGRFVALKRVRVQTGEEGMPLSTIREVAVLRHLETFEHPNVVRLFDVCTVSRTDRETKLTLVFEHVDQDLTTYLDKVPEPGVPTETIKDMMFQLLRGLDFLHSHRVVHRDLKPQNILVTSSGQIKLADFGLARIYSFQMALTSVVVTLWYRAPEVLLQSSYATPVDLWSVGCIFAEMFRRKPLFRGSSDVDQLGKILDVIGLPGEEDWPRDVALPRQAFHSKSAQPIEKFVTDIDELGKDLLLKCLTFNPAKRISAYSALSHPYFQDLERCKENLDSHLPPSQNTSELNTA
T21 sequence (P24385 whole entry partner): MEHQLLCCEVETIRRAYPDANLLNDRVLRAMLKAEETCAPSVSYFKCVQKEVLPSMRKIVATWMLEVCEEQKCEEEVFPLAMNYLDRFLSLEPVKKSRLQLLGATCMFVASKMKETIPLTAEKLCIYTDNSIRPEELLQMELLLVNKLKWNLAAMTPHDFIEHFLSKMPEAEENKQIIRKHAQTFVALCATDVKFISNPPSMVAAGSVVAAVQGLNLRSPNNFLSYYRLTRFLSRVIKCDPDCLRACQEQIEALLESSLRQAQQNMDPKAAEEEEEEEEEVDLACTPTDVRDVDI
Experimental: as §1

CDK3/cyclin E = target: T22, CDK3/cyclin E (Homo sapiens, UniProt Q00526)
T22 construct: purchased Reaction Biology Corp
Experimental: as §1

MARK3 = target: T23, MARK3 (Homo sapiens, UniProt P27448)
T23 construct: purchased Reaction Biology Corp
Experimental: as §1

CDK4/cyclin D3 = target: T24, CDK4/cyclin D3 (Homo sapiens, UniProt P11802)
T24 construct: purchased Reaction Biology Corp
Experimental: as §1

RIPK5 = target: T25, RIPK5 (Homo sapiens, UniProt Q6XUX3)
T25 construct: purchased Reaction Biology Corp
Experimental: as §1

CDK9/CYCLIN K = target: T26, CDK9/CYCLIN K (Homo sapiens, UniProt P50750)
T26 construct: purchased Reaction Biology Corp
Experimental: as §1

IRAK1 = target: T27, IRAK1 (Homo sapiens, UniProt P51617)
T27 construct: purchased Reaction Biology Corp
T27 sequence (P51617 whole entry): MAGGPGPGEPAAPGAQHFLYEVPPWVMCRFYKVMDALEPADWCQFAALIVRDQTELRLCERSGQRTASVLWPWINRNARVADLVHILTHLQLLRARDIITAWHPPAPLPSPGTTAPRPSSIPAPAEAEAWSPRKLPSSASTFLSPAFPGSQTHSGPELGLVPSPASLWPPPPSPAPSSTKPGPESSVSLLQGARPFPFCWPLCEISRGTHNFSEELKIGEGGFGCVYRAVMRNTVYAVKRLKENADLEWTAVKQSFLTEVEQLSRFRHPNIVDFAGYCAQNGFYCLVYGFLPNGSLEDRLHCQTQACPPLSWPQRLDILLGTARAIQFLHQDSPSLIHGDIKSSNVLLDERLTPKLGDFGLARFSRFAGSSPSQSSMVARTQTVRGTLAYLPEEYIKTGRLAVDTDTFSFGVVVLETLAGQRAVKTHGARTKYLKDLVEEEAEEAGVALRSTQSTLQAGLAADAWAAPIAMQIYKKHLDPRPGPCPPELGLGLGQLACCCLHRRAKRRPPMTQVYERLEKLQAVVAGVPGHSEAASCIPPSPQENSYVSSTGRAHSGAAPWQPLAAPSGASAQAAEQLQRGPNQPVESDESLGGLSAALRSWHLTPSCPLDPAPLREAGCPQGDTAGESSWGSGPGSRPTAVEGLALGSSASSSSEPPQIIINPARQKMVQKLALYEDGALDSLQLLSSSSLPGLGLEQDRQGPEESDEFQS
Experimental: as §1

DRAK1/STK17A = target: T28, DRAK1/STK17A (Homo sapiens, UniProt Q9UEE5)
T28 construct: purchased Reaction Biology Corp
Experimental: as §1

MSSK1/STK23 = target: T29, MSSK1/STK23 (Homo sapiens, UniProt Q9UPE1)
T29 construct: purchased Reaction Biology Corp
Experimental: as §1

CDC7/DBF4 = target: T30, CDC7/DBF4 (Homo sapiens, UniProt O00311)
T30 construct: purchased Reaction Biology Corp
Experimental: as §1

PKG1a = target: T31, PKG1a (Homo sapiens, UniProt Q13976)
T31 construct: purchased Reaction Biology Corp
Experimental: as §1

ERN2/IRE2 = target: T32, ERN2/IRE2 (Homo sapiens, UniProt Q76MJ5)
T32 construct: purchased Reaction Biology Corp
T32 sequence (Q76MJ5 35-926): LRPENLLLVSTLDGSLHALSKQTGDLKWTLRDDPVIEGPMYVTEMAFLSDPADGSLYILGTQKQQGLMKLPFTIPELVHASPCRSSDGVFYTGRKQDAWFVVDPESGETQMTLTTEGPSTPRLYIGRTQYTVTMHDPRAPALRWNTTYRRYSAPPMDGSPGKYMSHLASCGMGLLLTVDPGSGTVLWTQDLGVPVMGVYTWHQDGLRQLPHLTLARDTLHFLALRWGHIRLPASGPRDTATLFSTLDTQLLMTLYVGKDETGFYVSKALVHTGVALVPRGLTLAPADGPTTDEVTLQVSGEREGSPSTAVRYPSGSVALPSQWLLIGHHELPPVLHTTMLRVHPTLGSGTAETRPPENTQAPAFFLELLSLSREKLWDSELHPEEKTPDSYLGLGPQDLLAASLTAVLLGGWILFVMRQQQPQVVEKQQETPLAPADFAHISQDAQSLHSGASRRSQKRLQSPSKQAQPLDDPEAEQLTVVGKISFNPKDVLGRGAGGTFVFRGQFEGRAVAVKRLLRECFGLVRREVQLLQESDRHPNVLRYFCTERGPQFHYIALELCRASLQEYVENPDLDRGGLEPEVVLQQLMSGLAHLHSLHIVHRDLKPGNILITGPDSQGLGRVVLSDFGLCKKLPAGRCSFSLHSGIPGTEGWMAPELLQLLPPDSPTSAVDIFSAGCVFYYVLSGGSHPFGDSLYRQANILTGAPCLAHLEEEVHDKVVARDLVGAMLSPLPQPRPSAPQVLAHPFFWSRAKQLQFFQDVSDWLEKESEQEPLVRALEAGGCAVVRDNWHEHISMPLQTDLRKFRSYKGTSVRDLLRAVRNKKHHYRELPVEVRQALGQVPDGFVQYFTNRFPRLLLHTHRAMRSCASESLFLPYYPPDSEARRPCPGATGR
Experimental: as §1

MEKK2 = target: T33, MEKK2 (Homo sapiens, UniProt Q9Y2U5)
T33 construct: purchased Reaction Biology Corp
Experimental: as §1

RON/MST1R = target: T34, RON/MST1R (Homo sapiens, UniProt Q04912)
T34 construct: purchased Reaction Biology Corp
Experimental: as §1

CHK2 = target: T35, CHK2 (Homo sapiens, UniProt O96017)
T35 construct: purchased Reaction Biology Corp
Experimental: as §1

IKKb/IKBKB = target: T36, IKKb/IKBKB (Homo sapiens, UniProt O14920)
T36 construct: purchased Reaction Biology Corp
Experimental: as §1

CDK18/cyclin Y (PCTK3) = target: T37, CDK18/cyclin Y (PCTK3) (Homo sapiens, UniProt Q07002)
T37 construct: purchased Reaction Biology Corp
Experimental: as §1

ASK1/MAP3K5 = target: T38, ASK1/MAP3K5 (Homo sapiens, UniProt Q99683)
T38 construct: purchased Reaction Biology Corp
Experimental: as §1

ERN1/IRE1 = target: T39, ERN1/IRE1 (Homo sapiens, UniProt O75460)
T39 construct: purchased Reaction Biology Corp
Experimental: as §1

CAMK1b = target: T40, CAMK1b (Homo sapiens, UniProt Q6P2M8)
T40 construct: purchased Reaction Biology Corp
T40 sequence (Q6P2M8 whole entry): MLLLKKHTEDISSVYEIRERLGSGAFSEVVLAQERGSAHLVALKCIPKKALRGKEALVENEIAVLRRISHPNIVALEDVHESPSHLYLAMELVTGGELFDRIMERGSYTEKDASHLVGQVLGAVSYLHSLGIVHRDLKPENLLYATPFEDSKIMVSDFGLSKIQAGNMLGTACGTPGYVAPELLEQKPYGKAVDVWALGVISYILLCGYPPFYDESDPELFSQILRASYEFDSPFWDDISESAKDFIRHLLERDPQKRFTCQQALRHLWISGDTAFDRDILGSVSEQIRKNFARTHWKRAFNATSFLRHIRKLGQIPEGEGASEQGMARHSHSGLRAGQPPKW
Experimental: as §1

p70S6Kb/RPS6KB2 = target: T41, p70S6Kb/RPS6KB2 (Homo sapiens, UniProt Q9UBS0)
T41 construct: purchased Reaction Biology Corp
Experimental: as §1

P38d/MAPK13 = target: T42, P38d/MAPK13 (Homo sapiens, UniProt O15264)
T42 construct: purchased Reaction Biology Corp
T42 sequence (O15264 whole entry): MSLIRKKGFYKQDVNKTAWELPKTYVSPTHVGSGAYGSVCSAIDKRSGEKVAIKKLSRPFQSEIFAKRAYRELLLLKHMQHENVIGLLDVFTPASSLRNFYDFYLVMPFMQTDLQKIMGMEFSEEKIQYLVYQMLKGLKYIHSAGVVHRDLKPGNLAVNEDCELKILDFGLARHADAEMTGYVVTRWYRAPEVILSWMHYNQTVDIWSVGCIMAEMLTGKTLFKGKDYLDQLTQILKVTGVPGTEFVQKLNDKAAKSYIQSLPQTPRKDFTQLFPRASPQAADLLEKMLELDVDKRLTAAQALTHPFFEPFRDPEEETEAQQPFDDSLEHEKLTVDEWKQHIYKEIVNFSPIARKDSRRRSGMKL
Experimental: as §1

T1 sequence (P20794 whole entry): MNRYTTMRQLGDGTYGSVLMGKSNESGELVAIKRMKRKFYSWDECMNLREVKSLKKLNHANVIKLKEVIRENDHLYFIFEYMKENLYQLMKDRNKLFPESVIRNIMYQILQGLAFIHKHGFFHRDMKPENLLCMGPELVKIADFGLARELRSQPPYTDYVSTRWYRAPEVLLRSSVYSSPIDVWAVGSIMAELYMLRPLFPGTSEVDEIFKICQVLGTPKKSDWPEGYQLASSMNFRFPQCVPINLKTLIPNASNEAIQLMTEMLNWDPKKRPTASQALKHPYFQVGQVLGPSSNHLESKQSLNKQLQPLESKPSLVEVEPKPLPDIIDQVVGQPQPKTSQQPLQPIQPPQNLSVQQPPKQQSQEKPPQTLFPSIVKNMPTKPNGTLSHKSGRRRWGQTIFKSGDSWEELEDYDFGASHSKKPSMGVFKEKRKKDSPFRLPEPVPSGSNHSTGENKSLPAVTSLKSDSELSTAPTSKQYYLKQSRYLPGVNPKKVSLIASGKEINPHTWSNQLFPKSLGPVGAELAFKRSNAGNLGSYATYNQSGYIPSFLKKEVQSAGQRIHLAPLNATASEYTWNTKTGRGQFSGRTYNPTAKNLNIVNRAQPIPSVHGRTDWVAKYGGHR

Q: `Cc1ccc(NC(=O)c2ccc(CN3CCN(C)CC3)c(C(F)(F)F)c2)cc1-c1cnc2sc(N)nc2c1` [6r] was tested. Which inhibition at 1 µM (MAK) did it give?
A: 15%

Q: What about the inhibition at 1 µM (TSSK2) of the same compound?
A: 0%

Q: What about the inhibition at 1 µM (ZAP70) of the same compound?
A: 8.7%

Q: And the inhibition at 1 µM (EPHA7)?
A: 40.7%

Q: And the inhibition at 1 µM (CDK3/cyclin E2)?
A: 12.4%

Q: And the inhibition at 1 µM (PASK)?
A: 4.6%

Q: And the inhibition at 1 µM (STK32C/YANK3)?
A: 0.6%

Q: And the inhibition at 1 µM (MEKK1)?
A: 0%

Q: And the inhibition at 1 µM (CK1a1L)?
A: 8.5%

Q: What about the inhibition at 1 µM (PAK4) of the same compound?
A: 8.6%

Q: And the inhibition at 1 µM (KDR/VEGFR2)?
A: 77.8%

Q: And the inhibition at 1 µM (PKCd)?
A: 10.1%

Q: And the inhibition at 1 µM (IKKe/IKBKE)?
A: 2%

Q: And the inhibition at 1 µM (EPHA1)?
A: 8.2%

Q: And the inhibition at 1 µM (ULK1)?
A: 3.7%

Q: What about the inhibition at 1 µM (JNK2) of the same compound?
A: 31.8%

Q: And the inhibition at 1 µM (STK21/CIT)?
A: 5.6%

Q: What about the inhibition at 1 µM (VRK2) of the same compound?
A: 20.1%

Q: What about the inhibition at 1 µM (EPHA8) of the same compound?
A: 72.3%

Q: What about the inhibition at 1 µM (PKCmu/PRKD1) of the same compound?
A: 15.9%

Q: What about the inhibition at 1 µM (CDK6/cyclin D1) of the same compound?
A: 9.1%

Q: What about the inhibition at 1 µM (CDK3/cyclin E) of the same compound?
A: 14.3%

Q: And the inhibition at 1 µM (MARK3)?
A: 0%

Q: And the inhibition at 1 µM (CDK4/cyclin D3)?
A: 9.8%

Q: And the inhibition at 1 µM (RIPK5)?
A: 4.4%

Q: What about the inhibition at 1 µM (CDK9/CYCLIN K) of the same compound?
A: 0%

Q: And the inhibition at 1 µM (IRAK1)?
A: 0%

Q: What about the inhibition at 1 µM (DRAK1/STK17A) of the same compound?
A: 0%

Q: What about the inhibition at 1 µM (MSSK1/STK23) of the same compound?
A: 30.6%

Q: And the inhibition at 1 µM (CDC7/DBF4)?
A: 0.8%

Q: What about the inhibition at 1 µM (PKG1a) of the same compound?
A: 10.1%

Q: And the inhibition at 1 µM (ERN2/IRE2)?
A: 12.9%

Q: What about the inhibition at 1 µM (MEKK2) of the same compound?
A: 11.1%

Q: And the inhibition at 1 µM (RON/MST1R)?
A: 4.5%

Q: And the inhibition at 1 µM (CHK2)?
A: 4.8%

Q: And the inhibition at 1 µM (IKKb/IKBKB)?
A: 0%

Q: What about the inhibition at 1 µM (CDK18/cyclin Y (PCTK3)) of the same compound?
A: 5.1%

Q: What about the inhibition at 1 µM (ASK1/MAP3K5) of the same compound?
A: 0%

Q: What about the inhibition at 1 µM (ERN1/IRE1) of the same compound?
A: 8%

Q: What about the inhibition at 1 µM (CAMK1b) of the same compound?
A: 5.4%

Q: And the inhibition at 1 µM (p70S6Kb/RPS6KB2)?
A: 34%

Q: And the inhibition at 1 µM (P38d/MAPK13)?
A: 0%
